A short description of series [1]: In vitro determination of whole blood to plasma concentration ratios, human. Format: in vitro ADME. As to conditions: 1 μM, 37° C., 60 minutes. The protocol: (§1) (1) Fresh mouse and human whole blood (n≥3 for number of individual animals and n≥2 for number of individual humans) were collected in blood collection tubes containing EDTAK2 anticoagulant. Whole blood samples had to be mixed well and stored at 2-8° C. or on wet ice before use. They were used within 36 hours of whole blood collection. Blank whole blood was centrifuged at 2,000×g for 15 minutes at room temperature to obtain blank plasma. The plasma status was checked and hemolyzed plasma samples could not be used.
(§2) (2) The hematocrit (the percentage content of red blood cells in whole blood) was determined by centrifugation of whole blood samples in microhematocrit centrifuge tubes.
(§3) (3) Diclofenac (all species), chlorthalidone (mouse) or chloroquine (human) were used as control compounds.
(§4) (4) ACN solution containing 2% DMSO with a final concentration of 1 μM of the test compound was added to blank whole blood samples, and three parallel treatments were performed. The final content of the organic phase in the system should not exceed 0.5% (the content of DMSO should not exceed 0.1%). A certain volume of the drug-containing whole blood sample was pipetted to the sample receiving plate (three replicates), an equal volume of blank plasma was added, and mixed well to obtain the T0 sample.
(§5) (5) The whole blood sample containing the test compound was incubated at 37° C. with shaking for 60 minutes.
(§6) (6) After the end of incubation, a certain volume of whole blood samples containing the drug was pipetted to the sample receiving plate (three replicates) as T60-whole blood samples.
(§7) (7) The remaining whole blood samples were centrifuged at 2,000×g for 15 minutes in a 37° C. centrifuge to obtain plasma samples. A certain volume of plasma was pipetted to the sample receiving plate (three replicates) as T60-plasma samples.
(§8) (8) During sample treatment, all samples were equilibrated with the matrix (i.e., blank whole blood or blank plasma of the same volume was added) and mixed well.
(§9) (9) 1-fold volume of pure water was added to the equilibrated sample, and then a certain volume of stop solution containing internal standard compound was added to terminate the reaction.
(§10) (10) The analytes and control compounds in the samples were determined by liquid chromatography-tandem mass spectrometry (LC-MS/MS) method. The ratio of analyte peak area to internal standard peak area was used to represent the concentration in the sample.
(§11) See Table 7 for the experimental results. Wherein KB/P represents the concentration ratio of the compound in whole blood and plasma. KE/P represents the concentration ratio of the compound in red blood cells and plasma, and recovery (%) represents the recovery of the compound in whole blood.

Series [2] can be described thus: In vitro determination of whole blood to plasma concentration ratios, mouse. Conditions: CD-1 mouse whole blood, 1 μM, 37° C., 60 minutes. Format: in vitro ADME. The method, then: as §1, §2, §3, §4, §5, §6, §7, §8, §9, §10, §11
A short description of series [3]: Pharmacokinetic study in rats. The class given is in vivo. As to conditions: male SD rats; for AUC0-last / Cl / T1/2 / Vd / Cmax / TMax: whole blood. The method, then:
To evaluate the pharmacokinetic behavior of the compounds of the present disclosure in male SD rats.
The compounds to be tested were dissolved in the vehicle (5% DMSO/10% solutol/85% water). Four male SD rats were divided into 2 groups, with 2 rats in each group. Group 1 rats were administered a single intravenous bolus injection (i.v.) of the compounds at a dose of 1 mg/kg. Group 2 rats were administered a single dose of the compounds by gavage (p.o.) at a dose of 10 mg/kg. Whole blood samples were collected at 0.083 (intravenous bolus group only), 0.25, 0.5, 1, 2, 4, 8 and 24 hours after dosing. The LC-MS/MS method was used to determine the concentration of the test compound in whole blood samples.

Series [4] can be described thus: Pharmacokinetic study in Beagle dogs. The class given is in vivo. As to conditions: male Beagle dogs; for AUC0-last / Cl / T1/2 / Vd / Cmax / TMax: whole blood. The protocol:
To evaluate the pharmacokinetic behavior of the compounds of the present disclosure in male Beagle dogs.
The compounds to be tested were dissolved in the vehicle (5% DMSO/10% solutol/85% water). Four male beagle dogs were divided into 2 groups of 2. Group 1 animals were administered a single intravenous bolus injection (i.v.) of the compounds at a dose of 1 mg/kg. Group 2 animals were administered a single dose of the compounds by gavage (p.o.) at a dose of 5 mg/kg. Whole blood samples were collected at 0.083 (intravenous bolus group only), 0.25, 0.5, 1, 2, 4, 8 and 24 hours after dosing. The LC-MS/MS method was used to determine the concentration of the test compound in whole blood samples.

The values that follow come from patent publication US12458647B2, “Macrocyclic derivative and use thereof” (Guangzhou Joyo Pharmatech Co., Ltd., priority 2022, dated 2025).

One may read the Vd as a proportionality between amount in the body and measured concentration, not a real space. Low readings indicate confinement near the circulation, high ones extensive tissue distribution. Usually Cmax stands for the maximum level reached in the sampled fluid or tissue.

`CCn1c(-c2cc(N3CCN(C)CC3)cnc2C(C)OC)c2c3cc(ccc31)-c1csc(n1)CC(NC(=O)C1CC1C)C(=O)N1NC(C(=O)OCC(C)(C)C2)C2CC1C2` (single isomer, unassigned) [Compound 7A]: in series [1], the “KB/P (concentration ratio of the compound in whole blood and plasma)” value is 2.6; the “KE/P (concentration ratio of the compound in red blood cells and plasma)” value is 5.2; the “Recovery (%) of the compound in whole blood” value (“Recovery (%) of the compound” below) was determined as 102.6%. Moreover, in series [2], the “KB/P (concentration ratio of the compound in whole blood and plasma)” value is 5.1; the “KE/P (concentration ratio of the compound in red blood cells and plasma)” value came to 8.1; the “Recovery (%) of the compound” value is reported as 97.3%. Further, in series [3] (i.v. 1 mg/kg), the “AUC0-last” value amounted to 4.95 µM·h, the “Cl” value came to 3.6 mL/min/kg, the “T1/2” value was 8.5 h and the “Vd” value is given as 2.5 L/kg. Besides, in series [3] (p.o. 10 mg/kg), the “F(%)” value is 34.2%, the “AUC0-last” value turned out to be 17.069 µM·h, the Cmax came out at 1460 nM and the “T1/2” value is on record as 7.3 h. The “TMax” value in series [3] (p.o. 10 mg/kg) amounted to 4.0 h. In series [4] (i.v. 1 mg/kg), the “AUC0-last” value stood at 4.712 µM·h, the “Cl” value worked out at 4.2 mL/min/kg, the “T1/2” value is 10.3 h and the “Vd” value is 3.0 L/kg. For the same molecule, in series [4] (p.o. 5 mg/kg), the “F(%)” value was 33.2%, the “AUC0-last” value is 7.632 µM·h, the Cmax was determined as 618 nM and the “T1/2” value amounted to 12.0 h. Further, the “TMax” value in series [4] (p.o. 5 mg/kg) was determined as 1.0 h.
In the case of `CCn1c(-c2cc(N3CCN(C)CC3)cnc2C(C)OC)c2c3cc(ccc31)-c1csc(n1)CC(NC(=O)C1C(C)C1C)C(=O)N1NC(C(=O)OCC(C)(C)C2)C2CC1C2` (single isomer, unassigned) [Compound 6A], in series [1], the “KB/P (concentration ratio of the compound in whole blood and plasma)” value was 3.5; the “KE/P (concentration ratio of the compound in red blood cells and plasma)” value is on record as 6.5; the “Recovery (%) of the compound” value stood at 96.4%. In addition, in series [2], the “KB/P (concentration ratio of the compound in whole blood and plasma)” value is reported as 5.3; the “KE/P (concentration ratio of the compound in red blood cells and plasma)” value was 9.4; the “Recovery (%) of the compound” value is 101.5%. In series [3] (i.v. 1 mg/kg), the “AUC0-last” value is 4.125 µM·h, the “Cl” value is 4.6 mL/min/kg, the “T1/2” value is given as 5.7 h and the “Vd” value is reported as 1.9 L/kg. For the same molecule, in series [3] (p.o. 10 mg/kg), the “F(%)” value was 38%, the “AUC0-last” value came to 15.213 µM·h, the Cmax turned out to be 1620 nM and the “T1/2” value worked out at 6.1 h. Further, the “TMax” value in series [3] (p.o. 10 mg/kg) is on record as 1.5 h. In addition, in series [4] (i.v. 1 mg/kg), the “AUC0-last” value is 7.91 µM·h, the “Cl” value was 1.9 mL/min/kg, the “T1/2” value is listed as 24.5 h and the “Vd” value was determined as 3.8 L/kg. In series [4] (p.o. 5 mg/kg), the “F(%)” value was 22%, the “AUC0-last” value amounted to 8.72 µM·h, the highest level (Cmax) was 472 nM and the “T1/2” value turned out to be 22.4 h. In series [4] (p.o. 5 mg/kg), the “TMax” value is reported as 1.5 h.
